# Assay results as given in BindingDB's records for patent US20250179094 (Medinno Pharmaceutical Technology (Zhuhai) Co., 2025).
# Biological target: T1, TGF-beta receptor type-1 (Homo sapiens, UniProt P36897)
# T1 sequence (P36897 whole entry): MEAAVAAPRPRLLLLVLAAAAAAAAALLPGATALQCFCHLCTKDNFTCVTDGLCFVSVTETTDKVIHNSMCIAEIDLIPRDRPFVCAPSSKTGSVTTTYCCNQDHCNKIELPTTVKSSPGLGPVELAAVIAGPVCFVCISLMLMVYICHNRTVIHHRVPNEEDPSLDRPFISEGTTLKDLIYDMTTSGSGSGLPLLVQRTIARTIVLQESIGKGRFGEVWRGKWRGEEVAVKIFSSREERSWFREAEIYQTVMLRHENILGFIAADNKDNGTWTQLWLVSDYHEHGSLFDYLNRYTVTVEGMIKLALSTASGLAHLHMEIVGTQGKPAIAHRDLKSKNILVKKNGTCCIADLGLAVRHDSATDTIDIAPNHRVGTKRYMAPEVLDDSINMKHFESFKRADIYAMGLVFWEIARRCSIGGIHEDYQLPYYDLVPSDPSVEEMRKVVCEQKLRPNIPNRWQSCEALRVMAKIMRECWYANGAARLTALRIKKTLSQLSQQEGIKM
# Experiment: Kinase Activity Assay
# Procedure: The principle of the activity assay was that TGFβR1 phosphorylates the substrate TGFβR1tide, consuming ATP in the process. […] The specific experimental steps were as follows. Compounds were diluted 4-fold in DMSO in a dilution plate, with the final starting concentration of the compounds being 10 μM, across 10 concentration gradient points. The compounds were then further diluted 50-fold into the kinase reaction buffer and incubated on a shaker for 20 minutes. Kinase was formulated with an enzyme reaction buffer. 2 μl kinase was added to each well of the reaction plate. 1 μl of the compound diluted in buffer was added to each well, and then the plate was sealed with a sealing membrane and centrifuged at 1000 g for 30 seconds, leaving it at room temperature for 10 minutes. Solutions of TGFβR1tide and ATP were prepared with the kinase reaction buffer, and 2 μL of the TGFβR1tide/ATP solution was added to the reaction plate. The plate was sealed with a sealing film and centrifuged at 1000 g for 30 seconds. It was allowed to react at room temperature for 60 minutes. Subsequently, 4 μL of ADP-Glo was transferred to a 384-well reaction plate and centrifuged at 1000 rpm/min for 1 minute, followed by incubation at 25° C. for 40 minutes. Then, 8 μL of Detection solution was transferred to the 384-well reaction plate and centrifuged at 1000 rpm/min for 1 minute, after which it was incubated at 25° C. for 40 minutes. The RLU (Relative Luminescence Unit) signal was read using a BMG microplate reader, which was used to characterize the degree of kinase activity.
row,SMILES,IC50 [nM]
1,"Cc1cccc(-c2nn(C)cc2-c2ccnc(-c3nc4c([nH]3)CN(C(=O)N3CCN(C)CC3)C4)c2)n1 [US20250179094, Compound 37]",6.5
2,"Cc1cccc(-c2nn(CC3CC3)cc2-c2ccnc(-c3nc4c([nH]3)CN(C(=O)N3CCN(C)CC3)C4)c2)n1 [US20250179094, Compound 43]",2.7
3,"Cc1cccc(-c2nc3n(c2-c2ccnc(-c4nc5c([nH]4)CN(C(=O)N4CCOCC4)C5)c2)CCC3)n1 [US20250179094, Compound 33]",1.7
4,"CCn1cc(-c2ccnc(-c3nc4c([nH]3)CN(C(=O)N3CCN(C)CC3)C4)c2)c(-c2cccc(C)n2)n1 [US20250179094, Compound 38]",4.4
5,"Cc1cccc(-c2nn(Cc3ccccc3)cc2-c2ccnc(-c3nc4c([nH]3)CN(C(=O)N3CCN(C)CC3)C4)c2)n1 [US20250179094, Compound 23]",0.9
6,"Cc1cccc(-c2nc[nH]c2-c2ccnc(-c3nc4c([nH]3)CN(C(=O)N3CCN(C)CC3)C4)c2)n1 [US20250179094, Compound 7]",1.1
7,"Cc1cccc(-c2nn(C(C)C)cc2-c2ccnc(-c3nc4c([nH]3)CN(C(=O)N3CCN(C)CC3)C4)c2)n1 [US20250179094, Compound 22]",7.5
8,"Cc1cccc(-c2nc[nH]c2-c2ccnc(-c3nc4c([nH]3)CN(C(=O)N3CCCC3)C4)c2)n1 [US20250179094, Compound 6]",22
9,"Cc1cccc(-c2nc3n(c2-c2ccnc(-c4nc5c([nH]4)CN(C(=O)N4CC[C@@H](N(C)C)C4)C5)c2)CCC3)n1 [US20250179094, Compound 34]",1.9
10,"Cc1cccc(-c2nc3n(c2-c2ccnc(-c4nc5c([nH]4)CN(C(=O)N4CC[C@@H](O)C4)C5)c2)CCC3)n1 [US20250179094, Compound 15]",16
11,"Cc1cccc(-c2nc3n(c2-c2ccnc(-c4nc5c([nH]4)CN(C(=O)N4CCC(O)CC4)C5)c2)CCC3)n1 [US20250179094, Compound 27]",4.3
12,"Cc1cccc(-c2nn(Cc3cccc(F)c3)cc2-c2ccnc(-c3nc4c([nH]3)CN(C(=O)N3CCN(C)CC3)C4)c2)n1 [US20250179094, Compound 40]",1.6

# Now from value to compound:
row,IC50 [nM],SMILES
1,0.67,"Cc1cccc(-c2nn3c(c2-c2ccnc(-c4nc5c([nH]4)CN(C(=O)N4CCOCC4)C5)c2)CCC3)n1 [US20250179094, Compound 71]"
2,9.9,"Cc1cccc(-c2nn(Cc3cccc(F)c3)cc2-c2ccnc(-c3nc4c([nH]3)CN(C(=O)C3CC(O)C3)C4)c2)n1 (centres undefined) [US20250179094, Compound 57]"
3,6.9,"Cc1cccc(-c2nc3n(c2-c2ccnc(-c4nc5c([nH]4)CN(C(=O)N4CCN(C)CC4)C5)c2)CCOC3)n1 [US20250179094, Compound 61]"
4,0.9,"Cc1cccc(-c2nn3c(c2-c2ccnc(-c4nc5c([nH]4)CN(C(=O)N4CCN(C)CC4)C5)c2)CCC3)n1 [US20250179094, Compound 62]"
5,2,"Cc1cccc(-c2nn3c(c2-c2ccnc(-c4nc5c([nH]4)CN(C(=O)N4CCCC4)C5)c2)CCC3)n1 [US20250179094, Compound 72]"
6,23,"Cc1cccc(-c2nn(Cc3ccccc3)cc2-c2ccnc(-c3nc4c([nH]3)CN(C(=O)C3CC(O)C3)C4)c2)n1 (centres undefined) [US20250179094, Compound 56]"
7,2.3,"Cc1cccc(-c2nn3c(c2-c2ccnc(-c4nc5c([nH]4)CN(C(=O)N4CCC(O)CC4)C5)c2)CCC3)n1 [US20250179094, Compound 70]"
